In patent US10168342B2, “Lipid probes and uses thereof” (THE SCRIPPS RESEARCH INSTITUTE, priority 2015, dated 2019) one finds Times observed data, which are given here for one compound.

Holding throughout (test): isoTOP-ABPP mapping of AEA-DA-modified peptides in Neuro2a cells
Holding throughout (assay type): cell-based

In assay [1] the target is T1, AEA-DA-modified peptides in Neuro2a cells (Mus musculus, UniProt P84078).
T1 construct: endogenous in cells; host or cells: Neuro2a
The conditions noted are these: AEA-DA-modified peptide ARF1 P84078 39-60, SEQ ID NO 10; probe 100 μM, 12 replicates.

For assay [2], the target named is T2, AEA-DA-modified peptides in Neuro2a cells (Mus musculus, UniProt O35459).
T2 construct: endogenous in cells; host or cells: Neuro2a
T2 sequence (O35459 34-327): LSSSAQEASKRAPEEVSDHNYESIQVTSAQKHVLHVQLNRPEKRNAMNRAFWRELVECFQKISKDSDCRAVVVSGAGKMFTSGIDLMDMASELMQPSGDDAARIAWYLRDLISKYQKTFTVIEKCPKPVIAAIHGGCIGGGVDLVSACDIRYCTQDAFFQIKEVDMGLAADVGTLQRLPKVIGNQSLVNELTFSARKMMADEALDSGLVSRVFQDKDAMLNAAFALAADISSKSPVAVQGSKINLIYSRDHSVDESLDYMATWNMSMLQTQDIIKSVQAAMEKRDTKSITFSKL
To be noted: probe 100 μM, 12 replicates.

The target of assay [3] is T3, AEA-DA-modified peptides in Neuro2a cells (Mus musculus, UniProt Q99JY4).
T3 construct: endogenous in cells; host or cells: Neuro2a
T3 sequence (Q99JY4 whole entry): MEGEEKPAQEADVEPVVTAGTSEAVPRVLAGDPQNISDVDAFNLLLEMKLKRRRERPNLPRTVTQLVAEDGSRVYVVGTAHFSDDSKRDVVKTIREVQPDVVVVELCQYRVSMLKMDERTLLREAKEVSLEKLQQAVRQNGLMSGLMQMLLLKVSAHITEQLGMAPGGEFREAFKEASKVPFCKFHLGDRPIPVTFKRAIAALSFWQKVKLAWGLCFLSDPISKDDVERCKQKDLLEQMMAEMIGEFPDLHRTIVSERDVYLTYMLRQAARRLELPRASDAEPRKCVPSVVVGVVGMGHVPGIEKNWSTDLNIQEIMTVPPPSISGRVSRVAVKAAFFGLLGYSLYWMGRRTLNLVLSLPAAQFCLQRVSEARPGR
To be noted: AEA-DA-modified peptide TRABD Q99JY4 234-253, SEQ ID NO 116; probe 100 μM, 12 replicates.

For assay [4], the target named is T4, AEA-DA-modified peptides in Neuro2a cells (Mus musculus, UniProt P52825).
T4 construct: endogenous in cells; host or cells: Neuro2a
T4 sequence (P52825 26-658): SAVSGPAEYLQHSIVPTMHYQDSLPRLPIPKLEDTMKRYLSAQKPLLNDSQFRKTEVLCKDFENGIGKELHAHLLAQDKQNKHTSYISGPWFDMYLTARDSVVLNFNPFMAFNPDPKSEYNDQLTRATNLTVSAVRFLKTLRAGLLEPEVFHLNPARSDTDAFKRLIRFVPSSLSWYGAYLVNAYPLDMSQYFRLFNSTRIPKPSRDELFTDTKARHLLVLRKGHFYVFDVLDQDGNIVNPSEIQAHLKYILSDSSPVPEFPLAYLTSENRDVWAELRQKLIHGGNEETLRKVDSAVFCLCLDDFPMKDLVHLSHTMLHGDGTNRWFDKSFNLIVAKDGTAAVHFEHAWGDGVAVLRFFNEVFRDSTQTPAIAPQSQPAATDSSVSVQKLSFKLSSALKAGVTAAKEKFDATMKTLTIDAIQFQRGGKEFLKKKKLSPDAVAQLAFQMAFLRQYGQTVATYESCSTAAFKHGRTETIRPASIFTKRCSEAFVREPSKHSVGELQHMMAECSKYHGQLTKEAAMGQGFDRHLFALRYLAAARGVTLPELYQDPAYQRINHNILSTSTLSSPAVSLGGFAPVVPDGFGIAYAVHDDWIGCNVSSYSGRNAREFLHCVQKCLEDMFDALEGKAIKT
The conditions noted are these: AEA-DA-modified peptide CPT2 P52825 363-383, SEQ ID NO 26; probe 100 μM, 12 replicates.

Assay [5] concerns the target T5, AEA-DA-modified peptides in Neuro2a cells (Mus musculus, UniProt P08113).
T5 construct: endogenous in cells; host or cells: Neuro2a
The conditions noted are these: AEA-DA-modified peptide HSP90B1 P08113 664-672, SEQ ID NO 51; probe 100 μM, 12 replicates.

The target of assay [6] is T6, AEA-DA-modified peptides in Neuro2a cells (Mus musculus, UniProt Q8VDN2).
T6 construct: endogenous in cells; host or cells: Neuro2a
The conditions noted are these: AEA-DA-modified peptide ATP1A1 Q8VDN2 360-386, SEQ ID NO 17; probe 100 μM, 12 replicates.

Assay [7] addresses T7, AEA-DA-modified peptides in Neuro2a cells (Mus musculus, UniProt P20029).
T7 construct: endogenous in cells; host or cells: Neuro2a
To be noted: probe 100 μM, 12 replicates.

In assay [8] the target is T8, AEA-DA-modified peptides in Neuro2a cells (Mus musculus, UniProt O55022).
T8 construct: endogenous in cells; host or cells: Neuro2a
T8 sequence (O55022 whole entry): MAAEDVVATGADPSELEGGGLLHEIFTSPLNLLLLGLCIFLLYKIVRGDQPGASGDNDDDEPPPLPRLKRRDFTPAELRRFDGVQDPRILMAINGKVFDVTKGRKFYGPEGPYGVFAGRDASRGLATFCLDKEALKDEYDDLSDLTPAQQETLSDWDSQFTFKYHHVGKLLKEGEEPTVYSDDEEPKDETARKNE
The conditions noted are these: probe 100 μM, 12 replicates.

Assay [9] concerns the target T9, AEA-DA-modified peptides in Neuro2a cells (Mus musculus, UniProt P15626).
T9 construct: endogenous in cells; host or cells: Neuro2a
To be noted: AEA-DA-modified peptide GSTM2 P15626 109-123, SEQ ID NO 45; probe 100 μM, 12 replicates.

Assay [10] addresses T10, AEA-DA-modified peptides in Neuro2a cells (Mus musculus, UniProt P97311).
T10 construct: endogenous in cells; host or cells: Neuro2a
To be noted: AEA-DA-modified peptide MCM6 P97311 59-86, SEQ ID NO 59; probe 100 μM, 12 replicates.

The target of assay [11] is T11, AEA-DA-modified peptides in Neuro2a cells (Mus musculus, UniProt Q9CZN7).
T11 construct: endogenous in cells; host or cells: Neuro2a
T11 sequence (Q9CZN7 30-504): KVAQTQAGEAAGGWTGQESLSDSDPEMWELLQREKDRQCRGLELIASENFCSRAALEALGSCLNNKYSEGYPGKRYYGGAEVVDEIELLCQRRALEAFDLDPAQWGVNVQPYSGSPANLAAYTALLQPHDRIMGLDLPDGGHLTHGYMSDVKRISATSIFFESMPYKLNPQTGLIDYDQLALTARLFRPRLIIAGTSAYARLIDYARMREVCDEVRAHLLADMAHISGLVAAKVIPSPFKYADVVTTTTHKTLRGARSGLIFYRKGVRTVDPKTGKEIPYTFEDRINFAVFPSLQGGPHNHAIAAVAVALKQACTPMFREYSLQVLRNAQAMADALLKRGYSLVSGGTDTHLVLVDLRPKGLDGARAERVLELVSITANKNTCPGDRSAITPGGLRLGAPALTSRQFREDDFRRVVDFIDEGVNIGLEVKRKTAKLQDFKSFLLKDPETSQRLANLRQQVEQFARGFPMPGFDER
To be noted: probe 100 μM, 12 replicates.

T7 sequence (P20029 20-655): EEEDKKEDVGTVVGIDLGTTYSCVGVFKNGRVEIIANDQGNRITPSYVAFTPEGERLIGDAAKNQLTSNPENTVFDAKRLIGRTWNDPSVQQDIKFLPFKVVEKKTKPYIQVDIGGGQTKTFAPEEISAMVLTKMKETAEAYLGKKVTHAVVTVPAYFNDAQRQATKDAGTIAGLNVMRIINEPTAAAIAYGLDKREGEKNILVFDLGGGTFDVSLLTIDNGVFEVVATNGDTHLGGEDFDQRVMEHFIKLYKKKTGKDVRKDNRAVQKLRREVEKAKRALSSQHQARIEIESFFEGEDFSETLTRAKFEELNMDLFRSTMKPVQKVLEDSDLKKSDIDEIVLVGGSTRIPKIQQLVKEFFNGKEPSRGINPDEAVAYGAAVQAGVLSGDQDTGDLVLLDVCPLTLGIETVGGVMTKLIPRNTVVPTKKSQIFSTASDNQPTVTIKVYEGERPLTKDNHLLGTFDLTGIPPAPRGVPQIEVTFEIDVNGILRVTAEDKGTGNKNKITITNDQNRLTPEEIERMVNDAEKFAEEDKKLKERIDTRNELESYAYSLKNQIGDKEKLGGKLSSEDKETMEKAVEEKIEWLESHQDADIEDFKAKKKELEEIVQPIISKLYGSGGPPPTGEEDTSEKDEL
T5 sequence (P08113 22-802): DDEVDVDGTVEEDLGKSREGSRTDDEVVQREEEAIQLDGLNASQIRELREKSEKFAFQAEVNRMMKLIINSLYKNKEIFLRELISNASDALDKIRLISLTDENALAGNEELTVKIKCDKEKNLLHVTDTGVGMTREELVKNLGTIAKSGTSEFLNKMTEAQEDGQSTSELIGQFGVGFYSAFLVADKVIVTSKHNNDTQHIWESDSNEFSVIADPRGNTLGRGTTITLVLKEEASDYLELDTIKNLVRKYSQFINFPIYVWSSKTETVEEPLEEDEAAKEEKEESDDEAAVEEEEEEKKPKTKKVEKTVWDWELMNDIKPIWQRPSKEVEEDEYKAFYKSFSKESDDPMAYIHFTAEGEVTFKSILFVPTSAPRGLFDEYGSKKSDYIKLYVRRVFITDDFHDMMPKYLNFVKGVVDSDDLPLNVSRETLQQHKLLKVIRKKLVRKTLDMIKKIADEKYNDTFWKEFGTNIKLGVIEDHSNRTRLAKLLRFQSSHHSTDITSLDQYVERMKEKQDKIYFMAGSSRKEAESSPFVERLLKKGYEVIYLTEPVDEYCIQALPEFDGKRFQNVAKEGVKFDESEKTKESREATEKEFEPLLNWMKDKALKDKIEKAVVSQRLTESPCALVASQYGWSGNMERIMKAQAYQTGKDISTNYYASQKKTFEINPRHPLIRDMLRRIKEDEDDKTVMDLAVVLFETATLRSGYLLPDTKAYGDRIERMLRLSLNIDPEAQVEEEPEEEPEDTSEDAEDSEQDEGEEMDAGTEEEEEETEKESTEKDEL
T1 sequence (P84078 whole entry): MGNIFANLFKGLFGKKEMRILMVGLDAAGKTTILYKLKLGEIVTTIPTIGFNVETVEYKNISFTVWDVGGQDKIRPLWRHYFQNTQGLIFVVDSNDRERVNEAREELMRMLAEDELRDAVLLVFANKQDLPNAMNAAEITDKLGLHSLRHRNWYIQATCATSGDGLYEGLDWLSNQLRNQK
T10 sequence (P97311 whole entry): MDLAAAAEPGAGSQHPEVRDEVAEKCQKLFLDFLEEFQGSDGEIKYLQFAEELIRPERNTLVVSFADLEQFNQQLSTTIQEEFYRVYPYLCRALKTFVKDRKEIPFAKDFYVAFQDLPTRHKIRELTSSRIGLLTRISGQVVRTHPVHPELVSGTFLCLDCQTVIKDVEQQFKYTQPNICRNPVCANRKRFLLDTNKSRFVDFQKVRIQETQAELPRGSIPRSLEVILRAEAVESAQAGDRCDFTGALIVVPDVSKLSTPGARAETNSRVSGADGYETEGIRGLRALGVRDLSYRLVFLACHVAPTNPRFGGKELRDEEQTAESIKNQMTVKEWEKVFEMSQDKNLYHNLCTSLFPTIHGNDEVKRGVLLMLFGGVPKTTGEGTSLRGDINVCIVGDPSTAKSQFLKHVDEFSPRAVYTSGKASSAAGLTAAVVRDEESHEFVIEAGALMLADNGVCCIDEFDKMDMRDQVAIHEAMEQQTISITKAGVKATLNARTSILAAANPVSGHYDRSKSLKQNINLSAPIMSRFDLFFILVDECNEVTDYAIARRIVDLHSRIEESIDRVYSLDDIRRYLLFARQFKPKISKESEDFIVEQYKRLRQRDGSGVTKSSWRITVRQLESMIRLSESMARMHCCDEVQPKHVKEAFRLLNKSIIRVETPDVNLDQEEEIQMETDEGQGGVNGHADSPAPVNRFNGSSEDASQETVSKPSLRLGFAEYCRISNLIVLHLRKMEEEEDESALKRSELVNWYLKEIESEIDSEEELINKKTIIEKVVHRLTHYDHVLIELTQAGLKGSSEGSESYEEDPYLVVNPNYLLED
T9 sequence (P15626 whole entry): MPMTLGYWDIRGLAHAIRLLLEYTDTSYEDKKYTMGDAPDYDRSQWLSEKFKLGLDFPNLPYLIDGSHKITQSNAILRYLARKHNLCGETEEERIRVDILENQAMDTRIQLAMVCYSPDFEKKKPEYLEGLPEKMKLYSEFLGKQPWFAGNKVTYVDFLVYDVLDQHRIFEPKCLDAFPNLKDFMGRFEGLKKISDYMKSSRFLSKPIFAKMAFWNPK

As to `C#CCCCC1(CC/C=C\C/C=C\C/C=C\CCCC(=O)NCCO)N=N1` [AEA-DA, (5Z,8Z,11Z)-N-(2-hydroxyethyl)-14-(3-(pent-4-yn-1-yl)-3H-diazirin-3-yl)tetradeca-5,8,11-trienamide], the Times observed in [1] was 9; in assay [2] (AEA-DA-modified peptide ECH1 O35459 185-211, SEQ ID NO 32), 4; in assay [2] (AEA-DA-modified peptide ECH1 O35459 196-211, SEQ ID NO 33) it was 8; in [3], 4; in [4] it was 6; in assay [5] it was 4. For the same compound, the Times observed in [6] was found to be 2; in assay [7] (AEA-DA-modified peptide HSPA5 P20029 466-476, SEQ ID NO 52), 8; in assay [7] (AEA-DA-modified peptide HSPA5 P20029 635-656, SEQ ID NO 53) it was 4; in assay [8] (AEA-DA-modified peptide PGRMC1 O55022 48-68, SEQ ID NO 82), 2; in [8] (AEA-DA-modified peptide PGRMC1 O55022 106-120, SEQ ID NO 81), 12; in [9] it was 5. Further, the Times observed was found to be 3 in [10]; 9 in assay [11] (AEA-DA-modified peptide SHMT2 Q9CZN7 105-122, SEQ ID NO 101); 3 in assay [11] (AEA-DA-modified peptide SHMT2 Q9CZN7 161-182, SEQ ID NO 102).
